Reference: US11202792B2, “CD99 inhibitors and their uses” (GEORGETOWN UNIVERSITY, priority 2016, dated 2021)

Test system: U-2 OS cells
Experiment: Cell cycle analysis by flow cytometry, OS cells
Assay type: cell-based, human
Conditions: 48 h, U-2 OS compared with ES cells
Procedure: For the evaluation of cell cycle, cell cultures were incubated with 10 μmol/L bromodeoxyuridine (BrdU) (Sigma-Aldrich) for 1 h in a CO2 atmosphere at 37° C. Harvested cells were fixed in ice-cold 70% ethanol for 30 min. After DNA denaturation with 2 N HCl for 30 min at room temperature, cells were washed with 0.1 M Na2B4O7, pH 8.5 and processed for indirect immunofluorescence staining, using α-BrdU (BD Biosciences (San Jose, Calif.)) diluted 1:4 as a primary MAb and α-mouse FITC (1:100—Thermo Scientific (Waltham, Mass.)) as a secondary antibody. After treatment with 0.5 mg/ml RNase and staining with 20 μg/ml propidium iodide, cells were and analyzed by flow cytometry (FACSCalibur; Becton Dickinson (Franklin Lakes, N.J.)) for cell cycle evaluation and for assessing cell death by DNA content analysis.

SMILES: Nc1nc(Cl)nc2c1ncn2[C@H]1C[C@H](O)[C@@H](CO)O1 [cladribine]
- cell cycle effect: more pronounced
